For one assay, the target named is T1, Dihydrofolate reductase (Mus musculus, UniProt P00375).
T1 sequence (P00375 whole entry): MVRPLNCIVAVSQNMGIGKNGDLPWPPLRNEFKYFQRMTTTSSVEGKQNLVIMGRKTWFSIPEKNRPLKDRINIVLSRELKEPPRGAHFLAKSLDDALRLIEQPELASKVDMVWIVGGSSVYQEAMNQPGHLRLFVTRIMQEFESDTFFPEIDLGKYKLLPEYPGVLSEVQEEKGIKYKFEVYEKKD
Kind of assay: compound was evaluated for the inhibitory activity against Dihydrofolate reductase in permeabilised L1210 cells. It counts as cell-based.

The target of assay [1] is T2, Folylpolyglutamate synthase, mitochondrial (Homo sapiens, UniProt Q05932).
T2 sequence (Q05932 whole entry): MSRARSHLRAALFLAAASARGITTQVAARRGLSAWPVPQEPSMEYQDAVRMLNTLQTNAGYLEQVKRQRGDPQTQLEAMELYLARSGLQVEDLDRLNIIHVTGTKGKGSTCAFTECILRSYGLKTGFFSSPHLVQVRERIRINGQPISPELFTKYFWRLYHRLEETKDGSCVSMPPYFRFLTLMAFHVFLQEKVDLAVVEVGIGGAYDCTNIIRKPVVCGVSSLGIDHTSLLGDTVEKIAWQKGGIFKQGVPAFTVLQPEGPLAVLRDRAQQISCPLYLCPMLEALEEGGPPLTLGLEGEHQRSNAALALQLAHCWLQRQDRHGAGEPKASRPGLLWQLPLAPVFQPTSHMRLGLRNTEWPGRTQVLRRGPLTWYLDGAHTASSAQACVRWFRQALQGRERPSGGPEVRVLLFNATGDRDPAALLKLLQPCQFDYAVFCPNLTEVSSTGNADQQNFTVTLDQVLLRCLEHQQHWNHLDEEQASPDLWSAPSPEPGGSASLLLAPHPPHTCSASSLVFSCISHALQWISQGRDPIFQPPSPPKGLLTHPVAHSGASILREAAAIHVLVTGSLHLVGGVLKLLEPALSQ
Kind of assay: Compound was evaluated for the inhibitory activity against Folyl-polyglutamate synthase from CCRF-CEM human leukemia cells. It counts as cell-based.

Assay [2] relates to L1210. Nature of the assay: Compound was evaluated for the inhibition of L1210 murine leukemia cell growth. It counts as functional, cell-based. The settings on record: Mus musculus.
Assay [3] relates to L1210. Nature of the assay: Compound was evaluated for the inhibition of L1210 murine leukemia cell growth.(From ref 12b). The settings on record: Mus musculus.
Assay [4] has as its system L1210. Nature of the assay: Compound was evaluated for the inhibition of L1210 murine leukemia cell growth.(In this study). The settings on record: Mus musculus.

Structures are written as SMILES.

With `CN(Cc1cnc2nc(N)nc(N)c2n1)c1ccc(C(=O)NC(Cc2cn(CC(=O)O)cn2)C(=O)O)cc1` (configuration not stated), the IC50 is 0.37 µM against Dihydrofolate reductase, > 200 µM in assay [1] and 0.15 µM in the assay with L1210 [2].
The matching figures for `CN(Cc1cnc2nc(N)nc(N)c2n1)c1ccc(C(=O)NC(Cc2cnc[nH]2)C(=O)O)cc1` (configuration not stated): 1.3 µM, > 200 µM and 0.091 µM.
On the same counts, the results for `Nc1nc2ncc(CNc3ccc(C(=O)NC(Cc4cnc[nH]4)C(=O)O)cc3)nc2c(=O)[nH]1` (configuration not stated) are > 100 µM, > 200 µM and > 100 µM.
Take `CN(Cc1cnc2nc(N)nc(N)c2n1)c1ccc(C(=O)N[C@@H](CCC(=O)O)C(=O)O)cc1` [METHOTREXATE]: the results for the IC50 (in assay [1]; in the assay on L1210 [3]; in the assay on L1210 [4]) were 3.2 µM, 1.3 µM and 0.007 µM, respectively.

For the origin of these results see ChEMBL document CHEMBL1129374 (J Med Chem, 1996).
